Test results published in PMC9821843, “Powerful Potential of Polyfluoroalkyl-Containing 4-Arylhydrazinylidenepyrazol-3-ones for Pharmaceuticals” (Molecules, 2022).

Target: T1, ratTRPA1 (rTRPA1) (Rattus norvegicus, UniProt Q6RI86)
T1 construct: expressed in transfected cells
Assay: TRPA1 calcium imaging in CHO cells (AITC activation)
Assay type: cell-based
Details: CHO cells expressing TRPA1, Fluo-4, AITC 160 μM
Procedure: TRPA1 is known to be responsible for inflammatory and neuropathic pain appearance; therefore, it can be considered as a potential biological target for the analgesic action of the studied pyrazolones. Therefore, we studied the effect of pyrazolone 6b, showing the maximum analgesic effect in the hot plate test at 1 h on the activation of the TRPA1 ion channel by allyl isothiocyanate (AITC). The cell line CHO (Chinese hamster ovary cell) stably expressing the TRPA1 channel was used for measurement. Activation by a specific agonist was measured by fluorescence spectroscopy using Fluo-4 dye by changing the level of intracellular calcium.
Testing for receptors ratTRPA1 (rTRPA1) and ratTRPV1 (rTRPV1), stably expressed in CHO cells, was carried out using the calcium imaging method as described in [123, 124]. Fluorescence was performed using NOVOstar (BMG LABTECH, Ortenberg, Germany). The tested substances in 26% DMSO solution or 26% DMSO solution alone (negative control) (5 μL) were added to the cells loaded with the cytoplasmic calcium indicator Fluo-4AM using Fluo-4 Direct™ Calcium Assay Kit (Thermo Fisher Scientific Inc., Waltham, MA, USA) (60 μL) and incubated 5–10 min. Final DMSO concentration was 2%. Changes in cell fluorescence (λex = 485 nm, λem = 520 nm) were monitored at 25 °C before and after the addition of relevant agonist. […]

T1 sequence (Q6RI86 whole entry): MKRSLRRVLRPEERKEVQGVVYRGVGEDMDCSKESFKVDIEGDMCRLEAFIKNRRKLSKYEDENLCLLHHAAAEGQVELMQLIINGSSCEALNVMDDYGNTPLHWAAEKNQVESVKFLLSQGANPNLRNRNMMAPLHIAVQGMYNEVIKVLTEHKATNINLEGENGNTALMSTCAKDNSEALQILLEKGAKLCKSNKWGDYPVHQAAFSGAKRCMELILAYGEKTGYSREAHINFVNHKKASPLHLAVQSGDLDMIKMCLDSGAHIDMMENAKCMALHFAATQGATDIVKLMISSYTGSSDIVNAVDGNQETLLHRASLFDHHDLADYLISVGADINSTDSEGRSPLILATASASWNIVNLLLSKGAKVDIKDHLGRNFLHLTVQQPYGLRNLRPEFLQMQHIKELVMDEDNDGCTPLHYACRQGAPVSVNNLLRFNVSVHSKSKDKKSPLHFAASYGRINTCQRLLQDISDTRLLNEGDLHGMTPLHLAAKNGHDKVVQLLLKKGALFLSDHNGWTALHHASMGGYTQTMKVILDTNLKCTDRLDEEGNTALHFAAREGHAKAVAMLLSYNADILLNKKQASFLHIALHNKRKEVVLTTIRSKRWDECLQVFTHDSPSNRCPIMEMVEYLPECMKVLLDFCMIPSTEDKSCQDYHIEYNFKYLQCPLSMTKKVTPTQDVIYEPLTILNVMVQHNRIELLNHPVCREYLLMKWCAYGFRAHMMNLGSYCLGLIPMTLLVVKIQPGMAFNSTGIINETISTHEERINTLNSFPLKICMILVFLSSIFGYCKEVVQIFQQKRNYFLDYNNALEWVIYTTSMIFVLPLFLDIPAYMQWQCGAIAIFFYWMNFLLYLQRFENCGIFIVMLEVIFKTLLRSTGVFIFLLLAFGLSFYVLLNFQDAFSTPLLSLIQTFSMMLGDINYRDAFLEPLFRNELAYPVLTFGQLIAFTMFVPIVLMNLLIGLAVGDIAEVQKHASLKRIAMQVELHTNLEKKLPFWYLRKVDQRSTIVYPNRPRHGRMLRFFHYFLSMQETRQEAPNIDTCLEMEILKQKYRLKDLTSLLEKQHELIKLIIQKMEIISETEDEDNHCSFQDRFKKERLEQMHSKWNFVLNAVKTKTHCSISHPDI

Cc1ccc(N/N=C2\C(=O)N(c3ccccc3)N=C2C(F)(F)C(F)(F)F)cc1 [6b, (4Z)-4-[2-(4-Methylphenyl)hydrazinylidene]-5-(pentafluoroethyl)-2-phenyl-2,4-dihydro-3H-pyrazol-3-one]
effect on AITC-induced TRPA1 channel activation: no significant effect
